Like-named read-outs stand apart in the source and are kept apart here.
System: Escherichia coli (ATCC25922) or Staphylococcus aureus (ATCC25923)
Assay: Antibacterial MIC, microdilution method in Mueller-Hinton medium
Format: cell-based
Conditions: for MIC: Escherichia coli, 18 h, read-out: Potency (MIC)
How it was run: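 Read after 18 h incubation at 35° C, MIC is the lowest compound level that blocked growth. Compounds were tested in duplicate over 64–0.5 μg/ml two-fold dilutions using Mueller-Hinton microdilution per NCCLS standard.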

[1] = MIC in E. coli or S. aureus, two-fold serial dilutions 64 to 0.5 μg/ml in duplicate, 18 hours of incubation at 35° C.

Structure (SMILES) | MIC [µg/mL] | also measured
CCCCCCOc1ccc(Nc2nc(N3C[C@H](N)C[C@H](N)C3)nc(N3C[C@H](N)C[C@H](N)C3)n2)cc1 [N-(4-hexyloxy-phenyl)-4,6-Bis-((3R,5S)-3,5-diamino-piperidin-1-yl)-[1,3,5]triazine-2-amine] | < 16 | 
N[C@@H]1C[C@H](N)CN(c2nc(Nc3ccc(C(=O)CC(=O)Nc4ccccc4Cl)cc3)nc(N3C[C@H](O)C[C@H](O)C3)n2)C1 [N-(2-Chloro-phenyl)-3-{4-[4-((3R,5S)-3,5-diamino-piperidin-1-yl)-6-((3R,5S)-3,5-dihydroxy-piperidin-1-yl)-[1,3,5]triazin-2-ylamino]-phenyl}-3-oxo-propionamide] | < 64 | 
N[C@@H]1C[C@H](N)CN(c2nc(N3C[C@H](N)C[C@H](N)C3)nc(-n3ccc4cc(Br)ccc43)n2)C1 [5-Bromo-1-(4,6-Bis-((3R,5S)-3,5-diamino-piperidin-1-yl)-[1,3,5]triazain-2-yl)-1H-indole] | < 64 | 
Cl.O=C(Nc1ccc(Nc2nc(N3CCCCC3)nc(N3CCCCC3)n2)cc1Cl)c1ccc(C(F)(F)F)nc1O [N-{3-chlorro-4-[(2-hydroxy-6-trifluoromethyl-pyridine-3-carbonyl)-amino]-phenyl}-4,6-Bis-((3R,5S)-3,5-diamino-piperidin-1-yl)-[1,3,5]triazine-2-amine] |  | MIC [1]: < 16 µg/mL
N[C@@H]1C[C@H](N)CN(c2nc(Nc3ccc(NC(=O)c4ccc(O)cc4O)cc3)nc(N3C[C@H](N)C[C@H](N)C3)n2)C1 [N-[4-(2,4-dihydroxy-benzoylamino)-phenyl]-4,6-Bis-((3R,5S)-3,5-diamino-piperidin-1-yl)-[1,3,5]triazine-2-amine] | < 16 | 
CN(C)c1ccc(C(=O)Nc2ccc(Nc3nc(N4C[C@H](N)C[C@H](N)C4)nc(N4C[C@H](N)C[C@H](N)C4)n3)cc2)c(O)c1 [N-[4-(4-dimethylamino-2-hydroxy-benzoylamino)-phenyl]-4,6-Bis-((3R,5S)-3,5-diamino-piperidin-1-yl)-[1,3,5]triazine-2-amine] | < 16 | 
NC[C@@H]1C[C@H](N)CN1c1nc(Nc2ccc(C(=O)CC(=O)Nc3ccc(SC(F)(F)F)cc3)cc2)nc(N2C[C@H](N)C[C@H](N)C2)n1 [3-{4-[4-((2S,4S)-4-Amino-2-aminomethyl-pyrrolidin-1-yl)-6-((3R,5S)-3,5-diamino-piperidin-1-yl)-[1,3,5]triazin-2-ylamino]-phenyl}-3-oxo-N-(4-trifluoromethylsulfanyl-phenyl)-propionamide] | < 16 | 
N[C@@H]1C[C@H](N)CN(c2nc(Nc3ccc(C(=O)N4CCNC(=O)C4)c(O)c3)nc(N3C[C@H](N)C[C@H](N)C3)n2)C1 [N-[3-hydroxy-4-(3-oxo-piperazine-1-carbonyl)-phenyl]-4,6-Bis-((3R,5S)-3,5-diamino-piperidin-1-yl)-[1,3,5]triazine-2-amine] | > 64 | 
N[C@@H]1C[C@H](N)CN(c2nc(Nc3ccc(C(=O)CC(=O)Nc4ccc(SC(F)(F)F)cc4)cc3)nc(N3C[C@H](N)C[C@H](N)C3)n2)C1 [N-{4-[2-(4-trifluoromethylsulfanyl-phenylcarbamoyl)-acetyl]-phenyl}-4,6-Bis-((3R,5S)-3,5-diamino-piperidin-1-yl)-[1,3,5]triazine-2-amine] | < 16 | 
CC(=O)c1ccc(Nc2nc(N3C[C@H](N)C[C@H](N)C3)nc(N3C[C@@H](N)C[C@H]3CO)n2)cc1 [1-{4-[4-((2S,4S)-4-Amino-2-hydroxymethyl-pyrrolidin-1-yl)-6-((3R,5S)-3,5-diamino-piperidin-1-yl)-[1,3,5]triazin-2-ylamino]-phenyl}-ethanone] | > 64 | 
N[C@@H]1C[C@H](N)CN(c2nc(Nc3ccc(NC(=O)c4cc(Br)ccc4O)cc3)nc(N3C[C@H](N)C[C@H](N)C3)n2)C1 [N-[4-(5-bromo-2-hydroxy-benzoylamino)-phenyl]-4,6-Bis-((3R,5S)-3,5-diamino-piperidin-1-yl)-[1,3,5]triazine-2-amine] | < 16 | 
N[C@@H]1C[C@H](N)CN(c2cc(Nc3ccc([N+](=O)[O-])cc3)cc(N3C[C@H](N)C[C@H](N)C3)c2)C1 [(3,5-Bis-((3R,5S)-3,5-diamino-piperidin-1-yl)-phenyl)-(4-nitro-phenyl)-amine] | > 64 | 
Cl.N[C@@H]1C[C@H](N)CN(c2nc(Nc3ccc(Cl)c(Cl)c3)nc(N3C[C@H](N)C[C@H](N)C3)n2)C1 [N-(3,4-dichloro-phenyl)-4,6-Bis-((3R,5S)-3,5-diamino-piperidin-1-yl)-[1,3,5]triazine-2-amine] |  | MIC [1]: < 64 µg/mL
N[C@@H]1C[C@H](N)CN(c2nc(Nc3ccc(C(=O)CC(=O)Nc4ccc5c(c4)OC(F)(F)O5)cc3)nc(N3C[C@@H](N)C[C@H]3CO)n2)C1 [3-{4-[4-((2S,4S)-4-Amino-2-hydroxymethyl-pyrrolidin-1-yl)-6-((3R,5S)-3,5-diamino-piperidin-1-yl)-[1,3,5]triazin-2-ylamino]-phenyl}-N-(2,2-difluoro-benzo[1,3]dioxol-5-yl)-3-oxo-propionamide] | < 16 | 
Cl.NC1C[C@@H](N)CN(c2nc(Nc3ccc(NC(=O)c4cc(Cl)ccc4O)cc3)nc(N3C[C@H](N)C[C@H](N)C3)n2)C1 (stereo in doubt) [N-[4-(5-chloro-2-hydroxy-benzoylamino)-phenyl]-4,6-Bis-((3R,5S)-3,5-diamino-piperidin-1-yl)-[1,3,5]triazine-2-amine] |  | MIC [1]: < 16 µg/mL
N[C@@H]1C[C@H](N)CN(c2nc(Nc3ccc(NC(=O)c4ccccc4Cl)c(O)c3)nc(N3C[C@H](N)C[C@H](N)C3)n2)C1 [N-[4-(2-chloro-benzoylamino)-3-hydroxy-phenyl]-4,6-Bis-((3R,5S)-3,5-diamino-piperidin-1-yl)-[1,3,5]triazine-2-amine] | < 64 | 
N[C@@H]1C[C@H](N)CN(c2nc(NCCCn3ccnc3)nc(Nc3ccc(S(=O)(=O)Nc4ccc5cn[nH]c5c4)cc3)n2)C1 [4-[4-((3S,5R)-3,5-Diamino-piperidin-1-yl)-6-(3-imidazol-1-yl-propylamino)-[1,3,5]triazin-2-ylamino]-N-(1H-indazol-6-yl)-benzenesulfonamide] | > 64 | 
Cl.O=C(Nc1ccccc1Cl)c1ccc(Nc2nc(N3CCCCC3)nc(N3CCCCC3)n2)cc1O [N-[4-(2-choro-phenylcarbamoyl)-3-hydroxy-phenyl]-4,6-Bis-((3R,5S)-3,5-diamino-piperidin-1-yl)-[1,3,5]triazine-2-amine] |  | MIC [1]: < 64 µg/mL
NC[C@@H]1CN(c2nc(Nc3ccc(S(=O)(=O)Nc4ccc5cn[nH]c5c4)cc3)nc(N3C[C@H](N)C[C@H](N)C3)n2)CC[C@@H]1O [4-[4-((3R,4S)-3-Aminomethyl-4-hydroxy-piperidin-1-yl)-6-((3RE,5S)-3,5-diamino-piperidin-1-yl)-[1,3,5]triazin-2-ylamino]-N-(1H-indazol-6-yl)-benzenesulfonamide] |  | Potency (MIC) [1]: − (− means MIC>64 μg/ml in E. coli or S. aureus)
COCCNC(=O)c1ccc(Nc2nc(N3C[C@H](N)C[C@H](N)C3)nc(N3C[C@H](N)C[C@H](N)C3)n2)cc1O [N-[3-hydroxy-4-(2-methoxy-ethylcarbamoyl)-phenyl]-4,6-Bis-((3R,5S)-3,5-diamino-piperidin-1-yl)-[1,3,5]triazine-2-amine] |  | MIC [1]: > 64 µg/mL
N[C@@H]1C[C@H](N)CN(c2ccc(NC(=O)c3ccc4ccccc4c3O)cc2)C1 [1-Hydroxy-naphthalene-2-carboxylicacid [4-((3S,5R)-3,5-diamino-piperidin-1-yl)-phenyl]-amide] | > 64 | 
NC[C@@H]1C[C@H](N)CN1c1nc(Nc2ccc(NC(=O)c3ccc(Cl)cc3O)c(O)c2)nc(N2C[C@H](N)C[C@H](N)C2)n1 [N-{4-[4-((2S,4S)-4-Amino-2-aminomethyl-pyrrolidin-1-yl)-6-((3R,5S)-3,5-diamino-piperidin-1-yl)-[1,3,5]triazin-2-ylamino]-2-hydroxy-phenyl}-4-chloro-2-hydroxy-benzamide] | < 16 | 
N[C@@H]1C[C@H](N)CN(c2nc(Nc3ccc(NC(=O)c4cccc(Br)c4)c(O)c3)nc(N3C[C@H](N)C[C@H](N)C3)n2)C1 [N-[4-(3-bromo-benzoylamino)-3-hydroxy-phenyl]-4,6-Bis-((3R,5S)-3,5-diamino-piperidin-1-yl)-[1,3,5]triazine-2-amine] | < 16 | 
N[C@@H]1C[C@H](N)CN(c2nc(Nc3ccc(NC(=O)c4ccc(N5Cc6ccccc6C5)cc4O)c(O)c3)nc(N3C[C@H](N)C[C@H](N)C3)n2)C1 [N-{4-[4-(1,3-dihydro-isoindol-2-yl)-2-hydroxy-benzoylamino]-3-hydroxy-phenyl}-4,6-Bis-((3R,5S)-3,5-diamino-piperidin-1-yl)-[1,3,5]triazine-2-amine] | < 64 | 
Cl.N[C@@H]1C[C@H](N)CN(c2nc(N3C[C@H](N)C[C@H](N)C3)nc(N(c3ccccc3)c3ccc(O)cc3)n2)C1 [4-{[4,6-Bis-((3R,5S)-3,5-diamino-piperidin-1-yl)-[1,3,5]triazin-2-yl]-phenyl-amino}-phenyl] |  | MIC [1]: > 64 µg/mL
N[C@@H]1C[C@H](N)CN(c2nc(Nc3ccc(S(=O)(=O)Nc4ccc5cn[nH]c5c4)cc3)nc(N3C[C@@H](N)C[C@H]3CO)n2)C1 [4-[4-((2S,4S)-4-Amino-2-hydroxymethyl-pyrrolidin-1-yl)-6-((3R,5S)-3,5-diamino-piperidin-1-yl)-[1,3,5]triazin-2-ylamino]-N-(1H-indazol-6-yl)-benzenesulfonamide] | > 64 | 
COc1cccc(OC)c1C(=O)Nc1ccc(Nc2nc(N3C[C@H](N)C[C@H](N)C3)nc(N3C[C@H](N)C[C@H](N)C3)n2)cc1O [N-[4-(2,6-dimethoxy-benzoylamino)-3-hydroxy-phenyl]-4,6-Bis-((3R,5S)-3,5-diamino-piperidin-1-yl)-[1,3,5]triazine-2-amine] | < 64 | 
N[C@@H]1C[C@H](N)CN(c2nc(Nc3cccc(I)c3)nc(N3C[C@H](N)C[C@H](N)C3)n2)C1 [N-(3-Iodo-phenyl)-4,6-Bis-((3R,5S)-3,5-diamino-piperidin-1-yl)-[1,3,5]triazine-2-amine] | < 64 | 
